Laboratory results reported in PubChem BioAssay AID1996.
Values after ≈ are worked out from the molar mass of the structure shown.

Conditions: buffer; pH 7.4; 200.0 µM

Row | Compound | solubility kinetic
1 | Cc1cc(Nc2ccc(O)cc2)n2c(nc3ccccc32)c1C#N | 0.9 µg/mL (≈ 2.86 µM)
2 | O=C(NCc1csc(-c2cccs2)n1)C1CC1 | 34.3 µg/mL (≈ 130 µM)
3 | Cc1ccc(NC(=O)N[C@H](C(=O)O)C(C)C)c(C)c1 | > 39.6 µg/mL
4 | COc1cc2c(cc1OC)C(c1ccccc1N)=NCC2 | > 42.4 µg/mL
5 | COc1ccccc1C(=O)NCCCNC(=O)c1cnccn1 | 36.6 µg/mL (≈ 116 µM)
6 | CN(C)/C=C/C(=O)c1cc(N2CCOCC2)ccc1[N+](=O)[O-] | > 45.8 µg/mL
7 | Cc1cc(=O)[nH]c(N2CCCNCC2)n1 | > 31.2 µg/mL
8 | CC(=O)NC(CC(=O)Nc1nc(C)cs1)c1ccccc1 (stereo not given) | > 45.5 µg/mL
9 | Cc1nc2cccc(C(=O)Oc3ccc([N+](=O)[O-])cc3)c2o1 | 10.1 µg/mL (≈ 33.9 µM)
10 | O=C(Nc1cc([N+](=O)[O-])ccc1N1CCCC1)c1ccccc1 | 1.5 µg/mL (≈ 4.82 µM)
11 | COc1ccc(Cl)cc1NC(=O)Nc1cnccn1 | 0.4 µg/mL (≈ 1.44 µM)
12 | Cc1ccc(C)c(C(=O)COC(=O)Cn2c(C)csc2=O)c1 | > 47.9 µg/mL
13 | O=C(Nc1cscc1S(=O)(=O)c1ccc(Cl)cc1)c1ccccc1Cl | 2.6 µg/mL (≈ 6.31 µM)
14 | CC(C)(C)C(=O)N1CCN(c2ccc([N+](=O)[O-])cc2-n2cccc2)CC1 | 1.4 µg/mL (≈ 3.93 µM)
15 | COc1ccc(CCC(=O)NCc2ccc3c(c2)OCO3)cc1 | 23.1 µg/mL (≈ 73.7 µM)
16 | C=C1C(C(=O)Nc2ccccc2)C1C(=O)Nc1ccccc1 (stereo not given) | < 0.3 µg/mL
17 | CCOc1ccc(NC(=O)c2ccccc2NC(=O)CNC2CCCC(C)C2C)cc1 (stereo not given) | 2.2 µg/mL (≈ 5.19 µM)
18 | Cc1[nH]c(SCC(=O)c2c(N)n(C)c(=O)n(C)c2=O)nc1Cc1ccccc1 | > 59.9 µg/mL
19 | O=Cc1cn(CC(=O)Nc2ccc3c(c2)OCO3)c2ccccc12 | 0.4 µg/mL (≈ 1.24 µM)
20 | COc1cc(NC(=O)c2ccccn2)cc(OC)c1OC | > 43.2 µg/mL
21 | Cc1ccn2c(NC3CCCC3)c(-c3ccccn3)nc2c1 | 30.6 µg/mL (≈ 105 µM)
22 | CC(CCc1ccccc1)NC(=O)c1ccc(Br)cc1 (stereo not given) | 1.1 µg/mL (≈ 3.31 µM)
23 | Cc1ccc(S(=O)(=O)Nc2csc(C)c2C(=O)O)cc1 | > 46.7 µg/mL
24 | Cc1cc(=O)oc2cc(OCC(=O)N3c4ccccc4NC(=O)C3(C)C)ccc12 | 17.3 µg/mL (≈ 44.1 µM)

Row | Compound | solubility kinetic
25 | O=C(CSc1ccccc1F)NCCN1C(=O)CSC1=O | 48.1 µg/mL (≈ 146 µM)
26 | Cc1cccc(C)c1OCC(=O)Nc1c(C)nn(C)c1C | > 43.1 µg/mL
27 | O=C(O)c1cccnc1C(=O)c1ccccc1 | 31.9 µg/mL (≈ 140 µM)
28 | O=C(/C=C/c1ccco1)N(Cc1ccc(Cl)cc1)C1CCS(=O)(=O)C1 (stereo not given) | 46.2 µg/mL (≈ 122 µM)
29 | CCC(Oc1ccccc1F)C(=O)Nc1ccc2c(c1)n(C)c(=O)n2C (stereo not given) | 49 µg/mL (≈ 137 µM)
30 | CN1CCN(c2ccncc2S(=O)(=O)N2CCCCC2)CC1 | > 48.7 µg/mL
31 | Cc1ccc(CN2CCC(NC(=O)c3ccccc3)CC2)cc1 | > 46.3 µg/mL
32 | COc1ccccc1OCc1ccc(C(=O)NC(C)c2ccccc2)o1 (stereo not given) | 38.1 µg/mL (≈ 108 µM)
33 | C=CCc1ccc(OC(=O)NC2CCCCC2)c(OC)c1 | 4.5 µg/mL (≈ 15.6 µM)
34 | COc1cccc(-c2csc(NC(=O)Nc3ccccc3)n2)c1 | < 0.2 µg/mL
35 | Cc1cccc(C(=O)N/N=C/c2ccoc2)c1 | > 34.2 µg/mL
36 | C=C1c2cc3c(cc2NC(=S)N1Cc1ccccc1)OCO3 | 9.8 µg/mL (≈ 31.6 µM)
37 | COC(=O)C1=C(C)N(C)C(=O)NC1c1c(O)ccc2ccccc12 (stereo not given) | > 49 µg/mL
38 | O=S(=O)(NCCCN1CCOCC1)c1ccc2ccccc2c1 | > 50.2 µg/mL
39 | CCn1c(C)cc(/C=C2/SC(=O)N(C(C)C(=O)OC)C2=O)c1C (stereo not given) | 22.3 µg/mL (≈ 66.3 µM)
40 | Cc1nn(CC(=O)O)c(C)c1NC(=O)c1cccs1 | > 41.9 µg/mL
41 | Cc1cc(C(=O)COC(=O)Cc2ccc(Cl)cc2)c(C)n1C | 21.3 µg/mL (≈ 66.6 µM)
42 | Cc1nc2sc(C(N)=O)c(N)c2c2c1CCCC2 | 9.3 µg/mL (≈ 35.6 µM)
43 | CCOc1ncccc1C(=O)NCC(c1ccco1)N1CCCCC1 (stereo not given) | > 51.5 µg/mL
44 | CC(NCc1ccccc1O)c1ccccc1 (stereo not given) | > 34.1 µg/mL
45 | Nc1nc(NCC(=O)O)nc(NC2CCCCC2)c1[N+](=O)[O-] | > 46.5 µg/mL
46 | O=S(=O)(Nc1cccc(CCc2ccccn2)c1)c1cc(Cl)ccc1Cl | 9.2 µg/mL (≈ 22.6 µM)
47 | CC(=O)c1ccc(-c2ccc(C(=O)NCC(c3ccco3)N(C)C)o2)cc1 (stereo not given) | > 55 µg/mL
48 | CC(=O)c1sc(Nc2cccc(C)c2)nc1C | 3 µg/mL (≈ 12.2 µM)

Row | Compound | solubility kinetic
49 | O=C(COC(=O)/C=C/c1ccc(Cl)cc1Cl)NCC1CCCO1 (stereo not given) | 10.4 µg/mL (≈ 29 µM)
50 | Cc1ccc(S(=O)(=O)NC(=O)c2cccc(N(C)C)c2)cc1 | > 47.8 µg/mL
51 | CC(=O)N1c2ccccc2CCc2ccc([N+](=O)[O-])cc21 | > 42.3 µg/mL
52 | O=C(NCC(=O)N1CCN(c2ccc([N+](=O)[O-])cc2)CC1)c1ccco1 | 11.4 µg/mL (≈ 31.8 µM)
53 | Cc1nc([N+](=O)[O-])cn1CCCCN1C(=O)c2ccccc2C1=O | 8.3 µg/mL (≈ 25.3 µM)
54 | CNC(=O)COc1ccc2oc3c(c2c1)CCCC3 | 31 µg/mL (≈ 120 µM)
55 | Cc1ccc(-c2nc(-c3ccncc3)no2)cc1 | 1.1 µg/mL (≈ 4.64 µM)
56 | CC(C)c1nc(SCC(=O)NC(=O)NC(C)(C)C)n[nH]1 | > 44.9 µg/mL
57 | Fc1ccccc1CN1CCN(c2ncccn2)CC1 | 30.1 µg/mL (≈ 111 µM)
58 | N#CCCN(C(=O)COC(=O)/C=C/c1cccs1)c1ccccc1 | 9.9 µg/mL (≈ 29.1 µM)
59 | COC(=O)c1c(C)nc(C)c(C(=O)OC)c1-c1cccs1 | > 45.8 µg/mL
60 | OC(c1ccccc1)(c1ccccc1)C1CCNCC1 | > 40.1 µg/mL
61 | O=C(NCc1ccccc1)c1c(O)c2ccccc2[nH]c1=O | < 0.3 µg/mL
62 | CC(C)CNC(=O)C(=O)NCC1OCCCN1S(=O)(=O)c1cccs1 (stereo not given) | > 58.4 µg/mL
63 | COC(=O)COc1ccc(S(=O)(=O)N2CCCCCC2)cc1C | 39.3 µg/mL (≈ 115 µM)
64 | CCN(c1ccccc1)S(=O)(=O)c1ccc(C(=O)N2CCN(c3ccccc3)CC2)cc1 | 7 µg/mL (≈ 15.6 µM)
65 | CC(C)c1ccc(NC(=O)C2CC2c2ccccc2)cc1 (stereo not given) | 12 µg/mL (≈ 43 µM)
66 | CC(C)(C)C(=O)Cn1c(NCCCl)nc2ccccc21.Cl | > 49.5 µg/mL
67 | O=C(COC(=O)/C=C/c1cccc(Br)c1)NC1CCCC1 | 4.1 µg/mL (≈ 11.6 µM)
68 | CN(CC(=O)Nc1ccccc1Cl)C(=O)CCNC(=O)Nc1ccccc1 | > 58.3 µg/mL
69 | COC(=O)c1ccccc1-n1c(C)nc(=O)c(-c2ccccc2)c1C | > 50.2 µg/mL
70 | O=c1c(NCCc2ccc(Cl)cc2)c(-c2ccccc2)c1=O | 2.6 µg/mL (≈ 8.34 µM)
71 | O=[N+]([O-])c1cccc2ncccc12 | 16.3 µg/mL (≈ 93.6 µM)
72 | O=C(NC1CCCC1)c1cc(-c2ccc(Cl)cc2)on1 | < 0.3 µg/mL

Row | Compound | solubility kinetic
73 | NC(=S)N1CCCc2ccccc21 | > 28.8 µg/mL
74 | Nc1cc(N2CCOCC2)c(Cl)cc1[N+](=O)[O-] | 31.4 µg/mL (≈ 122 µM)
75 | O=C(O)CN1C(=O)S/C(=C\c2cccnc2)C1=O | > 39.6 µg/mL
76 | O=C(NCc1ccccc1)c1ccc(NC(=O)C2CCCO2)cc1 (stereo not given) | > 48.7 µg/mL
77 | O=C(NCc1ccccc1)/C(=C/c1ccco1)NC(=O)c1ccco1 | > 50.5 µg/mL
78 | COc1cc(OC)c(OC)cc1CNCCNC(=O)c1ccco1 | 44.5 µg/mL (≈ 133 µM)
79 | Cc1ccc(CC(=O)NCCC(=O)O)cc1 | > 33.2 µg/mL
80 | O=C(CN1C(=O)c2ccccc2S1(=O)=O)c1ccc(F)cc1 | 9.7 µg/mL (≈ 30.4 µM)
81 | c1ccc(CN2CCc3nc4ccccc4cc3C2)cc1 | 33.2 µg/mL (≈ 121 µM)
82 | Cc1cccc(NC(=O)CN2C(=O)C(C)Oc3ccccc32)n1 (stereo not given) | > 46.7 µg/mL
83 | C=CCN1C(=O)C2(OCCCO2)c2c(C)ccc(C)c21 | 28.2 µg/mL (≈ 103 µM)
84 | COc1ccc(NC(=O)c2cc(=O)c3ccccc3o2)cc1Cl | < 0.7 µg/mL
85 | O=C(COC(=O)Cc1ccsc1)Nc1ccc(Cl)cn1 | > 46.6 µg/mL
86 | O=C(Nc1cccc(Cl)c1)Nc1csc([N+](=O)[O-])c1 | 0.5 µg/mL (≈ 1.68 µM)
87 | O=C(NC(=S)NNC(=O)c1ccco1)c1ccc(F)cc1 | > 46.1 µg/mL
88 | Cc1ccc(S(=O)(=O)N(CC2CO2)c2cccc([N+](=O)[O-])c2)cc1 (stereo not given) | 43.9 µg/mL (≈ 126 µM)
89 | C[C@H](NC(=O)c1ccco1)C(=O)N1CCN(c2ccc(C(F)(F)F)cn2)CC1 | > 59.5 µg/mL
90 | Cc1ccccc1NC(=O)CCN1CCN(CCO)CC1 | 42.4 µg/mL (≈ 146 µM)
91 | COc1ccccc1-c1cn(-c2ccccc2)c(=S)[nH]1 | 3.8 µg/mL (≈ 13.5 µM)
92 | O=C(COc1cccc(C(F)(F)F)c1)Nc1cccnc1 | > 44.4 µg/mL
93 | CCCCn1c(NC(=O)c2ccco2)c(C(=O)OCC)c2nc3ccccc3nc21 | 4.9 µg/mL (≈ 12.1 µM)
94 | Cc1ccc(C(=O)Cn2cc([N+](=O)[O-])nc2C)cc1 | 11.7 µg/mL (≈ 45.1 µM)
95 | O=C(CN1CCN(Cc2ccccc2Cl)CC1)N/N=C/c1ccccn1 | > 55.8 µg/mL
96 | CCn1c(N)c(Br)c(=O)[nH]c1=O | > 35.1 µg/mL

Row | Compound | solubility kinetic
97 | NC(=S)Nc1nc2ccccc2s1 | 25.8 µg/mL (≈ 123 µM)
98 | COc1cc(C(=O)NCCNC(=O)c2ccc(C)nc2)cc(OC)c1OC | 52.6 µg/mL (≈ 141 µM)
99 | CC(C)CNC1CCS(=O)(=O)C1.Cl (stereo not given) | > 34.2 µg/mL
100 | O=C(c1ccc(Cl)cc1)N1CCN(CCOc2ccccc2)CC1 | > 51.7 µg/mL
101 | N#Cc1ccccc1COC(=O)c1cccc(S(=O)(=O)N2CCCC2)c1 | 12 µg/mL (≈ 32.4 µM)
102 | CSc1ccccc1NC(=O)CN1c2ccccc2CC1C (stereo not given) | 11.9 µg/mL (≈ 38.1 µM)
103 | C=C(C)CN(CC)C(=O)CC1C(=O)NCCN1CC(C)(C)C (stereo not given) | 39.6 µg/mL (≈ 128 µM)
104 | O=c1c2[nH]c3cccc(Cl)c3c2ncn1Cc1ccco1 | 0.5 µg/mL (≈ 1.67 µM)
105 | Cc1ccc(NC(=O)Cn2c(=O)oc3ccccc32)cc1Cl | 0.9 µg/mL (≈ 2.84 µM)
106 | CC(CC(=O)Nc1ccc2c(c1)OCO2)c1ccccc1 (stereo not given) | 38.5 µg/mL (≈ 136 µM)
107 | CC(C)N1CCN(Cc2ccncc2)CC1CCO (stereo not given) | 24.3 µg/mL (≈ 92.3 µM)
108 | Cc1ccc(C)c(NCC(O)c2ccccc2)c1 (stereo not given) | > 36.2 µg/mL
109 | CCCc1cnc(N2CCN(C(=S)NC)CC2)nc1 | 38.7 µg/mL (≈ 139 µM)
110 | CC(=O)c1sc(-c2ccc(F)cc2)cc1NS(=O)(=O)c1ccccc1 | 0.9 µg/mL (≈ 2.4 µM)
111 | O=C(O)c1cc(-c2cccs2)nc2ccc(F)cc12 | > 41 µg/mL
112 | COc1ccc(/C=N/OCc2ccccc2C#N)c(OC)c1 | 0.4 µg/mL (≈ 1.35 µM)
113 | CC(=O)c1c(C)n(Cc2ccccc2)c2ccc(O)cc12 | 0.7 µg/mL (≈ 2.51 µM)
114 | CC(C)CC1(C)NC(=O)N(CC(=O)Nc2ccc3c(c2)OCCO3)C1=O (stereo not given) | > 54.2 µg/mL
115 | CC(C)OC(=O)/C(C#N)=C\c1cccnc1 | 28.2 µg/mL (≈ 130 µM)
116 | O=C(Nc1ccccc1F)OC1CN2CCC1CC2 (stereo not given) | > 39.6 µg/mL
117 | CN1CCN(S(=O)(=O)c2ccc(N(C)Cc3c(F)cccc3Cl)nc2)CC1 | 5.4 µg/mL (≈ 13.1 µM)
118 | O=C(Nc1ccccc1)c1ccc(-c2ccc([N+](=O)[O-])cc2)o1 | 7.4 µg/mL (≈ 24 µM)
119 | CCN(CC)c1ccc(/C=N/O)cc1 | > 28.8 µg/mL
120 | COc1ccc2c([N+](=O)[O-])c(Cl)[nH]c2c1 | 32.3 µg/mL (≈ 143 µM)
